Reference: publication PMC5716539, “The acute glucose lowering effect of specific GPR120 activation in mice is mainly driven by glucagon-like peptide 1” (PLoS ONE, 2017)
Like-named read-outs stand apart in the source and are kept apart here.

Key:
human GPR120 = target: T1, human GPR120 (Homo sapiens, UniProt Q5NUL3); test: β-arrestin recruitment (Tango) assay in U2OS-hGPR120 cells; type: cell-based
T1 construct: expressed in transfected cells
T1 sequence (Q5NUL3 1-361): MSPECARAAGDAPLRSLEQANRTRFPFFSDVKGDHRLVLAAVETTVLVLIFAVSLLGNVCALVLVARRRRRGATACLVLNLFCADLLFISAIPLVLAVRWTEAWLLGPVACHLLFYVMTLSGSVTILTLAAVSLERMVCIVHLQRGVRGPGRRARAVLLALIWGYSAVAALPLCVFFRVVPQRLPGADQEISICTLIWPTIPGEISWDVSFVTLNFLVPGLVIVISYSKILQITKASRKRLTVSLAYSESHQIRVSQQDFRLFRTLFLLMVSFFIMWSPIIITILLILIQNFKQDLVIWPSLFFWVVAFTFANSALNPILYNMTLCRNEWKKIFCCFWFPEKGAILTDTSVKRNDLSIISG
Procedure: U2OS-hGPR120 cells cultured in Freestyle medium (Invitrogen) were incubated for 5 hours with GPR120 agonists in 384-well Cell BIND plates (Corning) at 37°C, 95% humidity and 5% CO2. LiveBLAzer™ FRET B/G working solution (Invitrogen) was added and after 2 hours at room temperature fluorescence intensity (λex = 405 nm, λem = 530 and 460 nm) was detected using a Pherastar FS (BMG Labtech) according to the manufacturers protocol.

human GPR40 = human GPR40 (Homo sapiens, UniProt O14842); test: DMR assay in CHO-hGPR40 cells; type: cell-based
human GPR40, sequence (O14842 whole entry): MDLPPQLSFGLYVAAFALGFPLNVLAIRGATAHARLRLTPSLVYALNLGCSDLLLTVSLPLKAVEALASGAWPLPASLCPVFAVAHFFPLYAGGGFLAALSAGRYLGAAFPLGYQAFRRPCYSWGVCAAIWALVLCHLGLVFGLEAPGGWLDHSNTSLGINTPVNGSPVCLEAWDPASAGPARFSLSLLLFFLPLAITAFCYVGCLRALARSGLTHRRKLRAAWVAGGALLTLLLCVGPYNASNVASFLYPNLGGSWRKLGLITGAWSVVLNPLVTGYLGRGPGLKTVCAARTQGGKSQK
Procedure: DMR (dynamic mass redistribution) was measured by resonant waveguide grating (RWG) using an Epic biosensor (Corning). CHO-hGPR120, CHO-mGPR120 and CHO cells in DMEM/F-12 (Invitrogen) were cultured in fibronectin coated 384-well Epic plates (Corning) at 37°C, 95% humidity and 5% CO2 for 5 hours with 10% FBS (Sigma), followed by 19 hours without FBS. CHO-hGPR40 cells were cultured at 37°C, 95% humidity and 5% CO2 for 20–24 hours in Ham’s F-12 Nutrient Mix with GlutaMAX (Invitrogen) supplemented with Non-Essential Amino Acids (Gibco) and 10% FBS (Sigma) in fibronectin coated 384-well Epic plates (Corning). Following the incubations culture media was replaced with HBSS (Invitrogen), 20 mM HEPES (Invitrogen), pH 7.4 and 1% DMSO and equilibrated to 26°C in the Epic for thirty min before addition of agonists and detection of DMR.

GPR120 null mice [1] = test: OGTT in male GPR120 null mice; type: in vivo, mouse
Procedure: OGTT tests were performed in lean male mice (body weight 27-32g), randomized on body weight, fasted for 16 hours. An oral glucose load (2 g/kg) was administered 30 min (AZ13581837, 7 and 18 mg/kg) or 60 min (Metabolex-36, 10, 30 and 100 mg/kg) after oral dosing with the GPR120 agonists and blood glucose was measured at -30, 0, 10, 25, 40, 60 and 90 min post glucose administration. The specificity of Metabolex-36 was examined in male GPR120 null mice. The administration time for the GPR120 agonists was optimized depending on the pharmacokinetic profile of each compound, in order to maximize the plasma exposure of the compounds during the experiments.

mouse islets = test system: mouse islets; set-up: method as in PMID 24663807; details: cited from earlier work
GPR120 null mice [2] = test: IVGTT in female GPR120 null mice; type: in vivo, mouse
Procedure: Lean female mice (body weight 20–25 g), were randomized on body weight and fasted 4 hours prior to the IVGTT. Metabolex-36 (100 mg/kg) was administered orally 60 min and AZ13581837 (35mg/kg) 30 min before the IVGTT ([…]). Control mice were given vehicle (0.5% HPMC, 0.1% Tween-80) at corresponding time points. The specificity of AZ13581837 was examined in IVGTT in GPR120 null mice. GPR120 agonist doses were selected to reach plasma levels of at least 10 times over the in vitro EC50 value to achieve maximal activation of GPR120 (S2 Appendix). Thirty minutes prior to the glucose load, the mice were anaesthetised (20 mg/kg fluanisone/0.8 mg/kg fentanyl (Hypnorm®, Janssen, Beerse, Belgium) and 10 mg/kg midazolam (Dormicum®, Hoffman-LaRoche, Basel, Switzerland)) to allow for rapid blood sampling. The mice were kept at a heating pad to maintain body temperature.
In the IVGTT, the acute insulin response (AIR) was calculated as the mean of suprabasal 1 and 5 min values, and the glucose elimination was quantified using the glucose elimination constant (KG) calculated as the slope of the logarithmic transformation of circulating glucose between 1 and 20 min after the glucose bolus. Multiple comparisons between the different groups were performed by one-way ANOVA. Tukey’s or Bonferroni’s post hoc test were used to calculate statistical differences between the groups. […]

Molecule | EC50 (human GPR120; read-out: β-arrestin EC50, β-arrestin recruitment in U2OS-hGPR120 cells, mean ± SEM) [µM] | DMR response in CHO-hGPR40 cells (human GPR40) | Effect on oral glucose tolerance in GPR120 null mice (GPR120 null mice [1]) | Somatostatin secretion in vitro from mouse islets (mouse islets) | EC50 (human GPR120) [µM] | Glucose elimination in GPR120 null mice (GPR120 null mice [2]; IVGTT) | Acute insulin secretion in GPR120 null mice (GPR120 null mice [2]; vs vehicle of same genotype)
3-(3,5-difluoro-4-((3-methyl-1-phenyl-1H-pyrazol-5-yl)methoxy)phenyl)-2-methylpropanoic acid [Metabolex-36] | 1.4 ± 0.7 | Neither AZ13581837 nor Metabolex-36 were able to induce a DMR response | no effect | reduce somatostatin secretion |  |  | 
C#Cc1cc(Oc2cccnc2)cc(N2Cc3ccccc3S2(=O)=O)c1 [AZ13581837, 2-(3-ethynyl-5-(3-pyridyloxy)phenyl)-3H-1,2-benzothiazole 1,1-dioxide] |  | Neither AZ13581837 nor Metabolex-36 were able to induce a DMR response |  |  | 0.0052 ± 0.0004 | no effect | no effect
